Values quoted from earlier work as cited in patent publication US20020019373A1, “Combinations of bisphosphonates and estrogenic agents” (American Home Products Corporation, priority 2000, published 2002).

Tested on: Paget's disease of the bone
Conditions: approved by the FDA for Paget's disease of the bone (30-mg tablets)

In the case of `O=P(O)(O)C(O)(Cc1cccnc1)P(=O)(O)O` [Risedronate], the “effectiveness in clinical trials” value is given as “effective”.
